# Test results as given in patent publication US8003660B2, “Modulators of muscarinic receptors” (Vertex Pharmaceuticals Incorporated, priority 2006, dated 2011).
# Experiments:
# Assay type in all cases: cell-based
# M2 muscarinic receptor = target: T1, M2 muscarinic receptor (Homo sapiens, UniProt P08172); assay: Functional mobilization of intracellular calcium (FLIPR) in CHO cells expressing M2; conditions: for M2 Activity: CHO cells expressing M2, FLIPR calcium assay; for Emax: CHO, 100% efficacy = maximum response obtained with the Carbachol control
# T1 construct: expressed in transfected cells; host or cells: CHO (M2-CHO)
# T1 sequence (P08172 1-466): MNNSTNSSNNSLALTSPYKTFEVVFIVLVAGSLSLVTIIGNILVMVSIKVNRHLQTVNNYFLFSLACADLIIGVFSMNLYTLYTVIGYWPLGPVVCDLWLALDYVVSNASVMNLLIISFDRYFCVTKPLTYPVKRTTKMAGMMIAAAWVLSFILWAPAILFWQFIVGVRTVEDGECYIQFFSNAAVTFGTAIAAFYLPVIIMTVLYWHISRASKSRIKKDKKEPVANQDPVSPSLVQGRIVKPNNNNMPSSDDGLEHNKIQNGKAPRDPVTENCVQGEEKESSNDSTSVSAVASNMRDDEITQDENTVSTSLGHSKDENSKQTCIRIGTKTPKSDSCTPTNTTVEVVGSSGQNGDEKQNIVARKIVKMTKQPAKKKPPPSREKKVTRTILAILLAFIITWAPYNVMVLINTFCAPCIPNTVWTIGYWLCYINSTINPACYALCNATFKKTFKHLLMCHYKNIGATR
# Outline: (§1)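 Recombinant CHO cells loaded with Fluo-3 AM or Calcium 3 dye in pH 7.4 buffer containing 1 mM probenecid, with 0.5% final DMSO. For agonism, compound is added directly. For inhibition, it is preincubated 15 min, or co-applied, before carbachol at EC80. FLIPR fluorescence (ex 488, em 540 nm) is recorded for 60 s.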
# M1 muscarinic receptor = target: T2, M1 muscarinic receptor (Homo sapiens, UniProt P11229); assay: Functional mobilization of intracellular calcium (FLIPR) in CHO cells expressing M1; conditions: for M1 Activity: CHO cells expressing M1, FLIPR calcium assay; for Emax: CHO, 100% efficacy = maximum response obtained with the Carbachol control
# T2 construct: expressed in transfected cells; host or cells: CHO (M1-CHO)
# T2 sequence (P11229 1-460): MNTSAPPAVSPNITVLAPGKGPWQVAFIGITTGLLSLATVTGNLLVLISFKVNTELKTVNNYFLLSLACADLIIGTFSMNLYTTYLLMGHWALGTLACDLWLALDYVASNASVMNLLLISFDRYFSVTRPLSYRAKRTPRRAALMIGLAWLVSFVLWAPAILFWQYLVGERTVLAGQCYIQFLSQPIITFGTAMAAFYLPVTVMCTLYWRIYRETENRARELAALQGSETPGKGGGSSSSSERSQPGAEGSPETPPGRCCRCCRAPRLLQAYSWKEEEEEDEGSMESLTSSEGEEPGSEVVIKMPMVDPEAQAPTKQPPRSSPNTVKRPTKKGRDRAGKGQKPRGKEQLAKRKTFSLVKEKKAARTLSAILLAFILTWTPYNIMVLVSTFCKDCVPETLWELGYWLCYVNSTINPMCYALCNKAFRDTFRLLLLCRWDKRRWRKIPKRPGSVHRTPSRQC
# Outline: as §1
# M3 muscarinic receptor = target: T3, M3 muscarinic receptor (Homo sapiens, UniProt P20309); assay: Functional mobilization of intracellular calcium (FLIPR) in CHO cells expressing M3; conditions: for M3 Activity: CHO cells expressing M3, FLIPR calcium assay; for Emax: CHO, 100% efficacy = maximum response obtained with the Carbachol control
# T3 construct: expressed in transfected cells; host or cells: CHO (M3-CHO)
# T3 sequence (P20309 whole entry): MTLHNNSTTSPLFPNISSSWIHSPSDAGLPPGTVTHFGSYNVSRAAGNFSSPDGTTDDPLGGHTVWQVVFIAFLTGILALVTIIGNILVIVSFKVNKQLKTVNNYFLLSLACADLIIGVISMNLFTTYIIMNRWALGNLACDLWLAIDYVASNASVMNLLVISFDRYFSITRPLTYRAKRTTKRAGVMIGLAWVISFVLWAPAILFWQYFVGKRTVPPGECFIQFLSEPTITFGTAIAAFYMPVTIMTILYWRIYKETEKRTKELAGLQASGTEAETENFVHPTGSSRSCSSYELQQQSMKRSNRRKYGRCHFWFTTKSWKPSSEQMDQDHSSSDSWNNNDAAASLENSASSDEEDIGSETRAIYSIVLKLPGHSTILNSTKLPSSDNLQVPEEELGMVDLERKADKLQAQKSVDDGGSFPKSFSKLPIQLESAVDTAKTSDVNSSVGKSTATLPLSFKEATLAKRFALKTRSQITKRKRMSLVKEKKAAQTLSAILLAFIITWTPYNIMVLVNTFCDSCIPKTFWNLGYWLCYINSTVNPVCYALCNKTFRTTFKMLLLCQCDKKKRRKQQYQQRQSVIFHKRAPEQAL
# Outline: as §1
# M4 muscarinic receptor = target: T4, M4 muscarinic receptor (Homo sapiens, UniProt P08173); assay: Functional mobilization of intracellular calcium (FLIPR) in CHO cells expressing M4; conditions: for M4 Activity: CHO cells expressing M4, FLIPR calcium assay; for Emax: CHO, 100% efficacy = maximum response obtained with the Carbachol control
# T4 construct: expressed in transfected cells; host or cells: CHO (M4-CHO)
# T4 sequence (P08173 1-479): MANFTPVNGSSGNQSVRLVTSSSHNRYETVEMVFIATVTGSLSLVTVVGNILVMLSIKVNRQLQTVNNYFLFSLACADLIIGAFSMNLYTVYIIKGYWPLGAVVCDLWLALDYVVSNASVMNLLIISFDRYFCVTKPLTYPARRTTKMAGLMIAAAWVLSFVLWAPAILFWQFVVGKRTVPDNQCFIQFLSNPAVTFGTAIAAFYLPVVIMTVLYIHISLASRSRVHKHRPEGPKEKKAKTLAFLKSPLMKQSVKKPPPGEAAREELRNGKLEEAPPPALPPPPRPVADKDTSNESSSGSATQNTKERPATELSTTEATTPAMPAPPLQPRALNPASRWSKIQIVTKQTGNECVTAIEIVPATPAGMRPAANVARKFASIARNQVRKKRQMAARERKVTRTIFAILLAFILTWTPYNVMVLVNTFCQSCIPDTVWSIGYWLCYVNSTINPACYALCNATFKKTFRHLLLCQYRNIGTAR
# Outline: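 Calcium flux is read on FLIPR over 60 sec at 488/540 nm in muscarinic-receptor CHO lines. Antagonist mode adds carbachol at EC80 after 15 min compound preincubation or with simultaneous co-application. Agonist mode adds compound alone. Cells carry Fluo-3 or Calcium 3 dye in probenecid-containing pH 7.4 buffer, 0.5% DMSO final.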
SMILES,M2 Activity (M2 muscarinic receptor),Emax (M2 muscarinic receptor) [%],M1 Activity (M1 muscarinic receptor),Emax (M1 muscarinic receptor) [%],M3 Activity (M3 muscarinic receptor),Emax (M3 muscarinic receptor) [%],M4 Activity (M4 muscarinic receptor),Emax (M4 muscarinic receptor) [%]
CC(=O)N[C@@H]1CCC2(CCN(CCC(C)(C)C)CC2)c2cc(F)ccc21 [compound 189],+++ (activity was measured to be less than 2.0 μM),< 25,+++ (activity was measured to be less than 2.0 μM),25 to 100,+ (activity was measured to be greater than 5.0 μM),< 25,+++ (activity was measured to be less than 2.0 μM),25 to 100
CC(=O)N1CCC(C(=O)N[C@H]2CCC3(CCN(CCC(C)(C)C)CC3)c3ccccc32)CC1 [compound 191],+ (activity was measured to be greater than 5.0 μM),< 25,+++ (activity was measured to be less than 2.0 μM),25 to 100,+ (activity was measured to be greater than 5.0 μM),< 25,+++ (activity was measured to be less than 2.0 μM),25 to 100
CC(C)(C)CCN1CCC2(CC[C@@H](NC(=O)[C@H]3CCC(=O)N3)c3ccc(F)cc32)CC1 [compound 192],+ (activity was measured to be greater than 5.0 μM),< 25,+ (activity was measured to be greater than 5.0 μM),< 25,+ (activity was measured to be greater than 5.0 μM),< 25,+++ (activity was measured to be less than 2.0 μM),25 to 100
Cn1nccc1C(=O)N[C@H]1CCC2(CCN(CCC(C)(C)C)CC2)c2ccccc21 [compound 193],+ (activity was measured to be greater than 5.0 μM),< 25,+++ (activity was measured to be less than 2.0 μM),25 to 100,+ (activity was measured to be greater than 5.0 μM),< 25,+++ (activity was measured to be less than 2.0 μM),25 to 100
CC(=O)N1CCC[C@H]1C(=O)N[C@H]1CCC2(CCN(CCC(C)(C)C)CC2)c2ccccc21 [compound 194],+ (activity was measured to be greater than 5.0 μM),< 25,+++ (activity was measured to be less than 2.0 μM),25 to 100,+ (activity was measured to be greater than 5.0 μM),< 25,+++ (activity was measured to be less than 2.0 μM),25 to 100
CC(C)(C)CCN1CCC2(CC[C@H](NC(=O)Cc3cccnc3)c3ccccc32)CC1 [compound 195],+++ (activity was measured to be less than 2.0 μM),25 to 100,+++ (activity was measured to be less than 2.0 μM),25 to 100,+ (activity was measured to be greater than 5.0 μM),< 25,+++ (activity was measured to be less than 2.0 μM),25 to 100
CCOCC(=O)N[C@H]1CCC2(CCN(CCC(C)(C)C)CC2)c2cc(F)ccc21 [compound 196],+++ (activity was measured to be less than 2.0 μM),25 to 100,+++ (activity was measured to be less than 2.0 μM),25 to 100,+ (activity was measured to be greater than 5.0 μM),< 25,+++ (activity was measured to be less than 2.0 μM),25 to 100
CC(C)(C)CCN1CCC2(CC[C@H](NC(=O)CCCN3CCCC3=O)c3ccccc32)CC1 [compound 197],+++ (activity was measured to be less than 2.0 μM),25 to 100,+++ (activity was measured to be less than 2.0 μM),25 to 100,+ (activity was measured to be greater than 5.0 μM),< 25,+++ (activity was measured to be less than 2.0 μM),25 to 100
CCN(C(=O)Cc1ccccn1)[C@H]1CCC2(CCN(CCC(C)(C)C)CC2)c2ccccc21 [compound 198],++ (activity was measured to be from 2.0 μM to 5.0 μM),< 25,+++ (activity was measured to be less than 2.0 μM),25 to 100,+ (activity was measured to be greater than 5.0 μM),< 25,+++ (activity was measured to be less than 2.0 μM),25 to 100
CCOC(=O)N(C)[C@H]1CCC2(CCN(CCC(C)(C)C)CC2)c2ccccc21 [compound 199],+ (activity was measured to be greater than 5.0 μM),< 25,++ (activity was measured to be from 2.0 μM to 5.0 μM),< 25,+ (activity was measured to be greater than 5.0 μM),< 25,+++ (activity was measured to be less than 2.0 μM),25 to 100
CC(=O)NCC(=O)N[C@@H]1CCC2(CCN(CCC(C)(C)C)CC2)c2cc(F)ccc21 [compound 200],+++ (activity was measured to be less than 2.0 μM),25 to 100,+++ (activity was measured to be less than 2.0 μM),25 to 100,+ (activity was measured to be greater than 5.0 μM),< 25,+++ (activity was measured to be less than 2.0 μM),25 to 100
CC(C)(C)CCN1CCC2(CC[C@H](NC(=O)C3CCOCC3)c3ccc(F)cc32)CC1 [compound 202],+ (activity was measured to be greater than 5.0 μM),< 25,+++ (activity was measured to be less than 2.0 μM),25 to 100,+ (activity was measured to be greater than 5.0 μM),< 25,+++ (activity was measured to be less than 2.0 μM),25 to 100
CC(C)(C)CCN1CCC2(CC[C@H](NC(=O)[C@H]3CCC(=O)N3)c3ccc(F)cc32)CC1 [compound 203],+++ (activity was measured to be less than 2.0 μM),25 to 100,+++ (activity was measured to be less than 2.0 μM),25 to 100,+ (activity was measured to be greater than 5.0 μM),< 25,+++ (activity was measured to be less than 2.0 μM),25 to 100
CC(=O)N[C@H]1CCC2(CCN(C(C)CC(C)(C)C)CC2)c2ccccc21 (stereo partly shown) [compound 204],+ (activity was measured to be greater than 5.0 μM),< 25,+++ (activity was measured to be less than 2.0 μM),25 to 100,+ (activity was measured to be greater than 5.0 μM),< 25,+++ (activity was measured to be less than 2.0 μM),25 to 100
